Holding throughout (assay type): biochemical
Experiment [1] has as its target Human KDR (residues 790-1356) (Homo sapiens (Human), UniProt P35968). Put plainly: Human KDR kinase assay, HTRF KinEase (Example B-2). Particulars: protocol of Example B-2 (other compounds). In outline: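 Ten compound concentrations (3% DMSO final) were pre-plated, then KDR (790-1356) with biotinylated peptide in Mg/Mn/DTT buffer was added; ATP at Km (4.0 μM) started a 40 min room-temperature reaction. Detection used Eu-TK antibody and SA-XL665 in EDTA buffer; activity normalized to DMSO and reference inhibitor, IC50 by logistic fit.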
In general terms: TR-FRET usually uses a lanthanide donor and a delayed reading to cut background.

The target of experiment [2] is Human MET (residues 956-1390) (Homo sapiens (Human), UniProt P08581). Put plainly: Human Met kinase assay, HTRF KinEase (Example D-2). Particulars: protocol of Example D-2 (other compounds); read-out: c-Met IC50. In outline: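 IC50 values come from a 4-parameter logistic fit of the […] fluorescence ratio, set between DMSO (100%) and reference compound at 1 μM (0%). Reactions held MET 956-1390 at 0.1 ng/well, ATP at Km, biotinylated peptide, 5 mM MgCl2, 1 mM MnCl2, 1 mM DTT and 3% DMSO, and ran 40 min at room temperature before streptavidin-XL665/Eu-antibody detection.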

For experiment [3], the target named is Human MER (residues 528-999) (Homo sapiens (Human), UniProt Q12866). Put plainly: Human Mer kinase assay, HTRF KinEase (Example C-2). Particulars: protocol of Example C-2 (other compounds). In outline: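 IC50 values from 10 concentrations via 4-parameter logistic fit of […], with DMSO as 100% and 1 μM reference compound as 0% activity. Reaction: MER kinase domain 528-999, 1 ng/well, 40 μM ATP (Km), biotin peptide, 5 mM MgCl2, 1 mM DTT, 3% DMSO, room temperature 60 min; HTRF streptavidin-XL665/Eu-antibody detection.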

Structures are written as SMILES.

Broadly, the IC50 is the concentration needed to halve the response being measured.

Chain of Human MET (residues 956-1390) (P08581 956-1390): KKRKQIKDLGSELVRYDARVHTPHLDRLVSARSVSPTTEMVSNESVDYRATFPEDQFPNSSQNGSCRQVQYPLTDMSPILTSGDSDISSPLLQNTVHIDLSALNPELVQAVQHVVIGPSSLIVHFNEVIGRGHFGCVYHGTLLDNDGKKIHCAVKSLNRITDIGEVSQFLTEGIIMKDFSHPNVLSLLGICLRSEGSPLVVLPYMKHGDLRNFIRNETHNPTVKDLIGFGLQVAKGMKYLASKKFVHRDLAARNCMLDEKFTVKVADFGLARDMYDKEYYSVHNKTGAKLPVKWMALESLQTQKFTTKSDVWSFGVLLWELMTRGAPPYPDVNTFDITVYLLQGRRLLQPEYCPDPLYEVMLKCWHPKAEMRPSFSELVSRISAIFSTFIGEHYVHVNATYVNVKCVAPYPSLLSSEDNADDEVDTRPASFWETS
Chain of Human KDR (residues 790-1356) (P35968 790-1356): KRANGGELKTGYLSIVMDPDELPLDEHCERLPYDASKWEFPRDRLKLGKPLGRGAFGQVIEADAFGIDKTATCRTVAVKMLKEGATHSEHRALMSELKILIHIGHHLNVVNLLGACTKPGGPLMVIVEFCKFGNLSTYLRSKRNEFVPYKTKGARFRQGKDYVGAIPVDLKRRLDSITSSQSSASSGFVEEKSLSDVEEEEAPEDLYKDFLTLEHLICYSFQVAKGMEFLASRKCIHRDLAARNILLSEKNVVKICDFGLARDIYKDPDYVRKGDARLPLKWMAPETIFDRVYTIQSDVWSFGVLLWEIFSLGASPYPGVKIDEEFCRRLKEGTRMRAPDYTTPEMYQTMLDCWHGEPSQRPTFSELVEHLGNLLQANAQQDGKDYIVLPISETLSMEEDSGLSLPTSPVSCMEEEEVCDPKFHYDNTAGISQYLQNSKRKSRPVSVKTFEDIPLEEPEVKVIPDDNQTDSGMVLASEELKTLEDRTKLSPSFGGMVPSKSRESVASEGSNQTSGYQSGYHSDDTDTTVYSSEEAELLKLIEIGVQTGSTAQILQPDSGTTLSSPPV
Chain of Human MER (residues 528-999) (Q12866 528-999): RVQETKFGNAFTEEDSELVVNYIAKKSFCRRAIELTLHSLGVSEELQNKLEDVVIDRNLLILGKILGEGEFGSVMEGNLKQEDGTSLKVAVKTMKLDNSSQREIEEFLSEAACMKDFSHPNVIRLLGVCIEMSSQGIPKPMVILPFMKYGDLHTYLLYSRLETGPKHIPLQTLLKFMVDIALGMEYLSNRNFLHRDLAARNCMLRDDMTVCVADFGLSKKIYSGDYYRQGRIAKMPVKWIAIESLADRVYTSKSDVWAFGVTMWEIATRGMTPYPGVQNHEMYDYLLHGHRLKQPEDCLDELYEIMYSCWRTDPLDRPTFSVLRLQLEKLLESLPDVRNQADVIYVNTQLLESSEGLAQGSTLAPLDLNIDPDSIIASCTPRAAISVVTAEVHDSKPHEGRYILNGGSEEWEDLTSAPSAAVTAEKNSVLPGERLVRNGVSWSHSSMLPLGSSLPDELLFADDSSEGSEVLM

In the case of `C=C(C)c1cc(C(=O)Nc2ccc(Oc3ccnc4cc(OC)c(OC)nc34)c(F)c2)c(=O)n(-c2ccc(F)cc2)c1C` [Compound 367, N-[4-[(6,7-dimethoxy-1,5-naphthyridin-4-yl)oxy]-3-fluorophenyl]-1-(4-fluorophenyl)-6-methyl-2-oxo-5-prop-1-en-2-ylpyridine-3-carboxamide], the 50% inhibitory concentration (IC50) in experiment [1] was above 300 nM; in experiment [2], 100 to 300 nM; in experiment [3], below 100 nM.

`COc1cc2nccc(Oc3ccc(NC(=O)c4cc(C(C)C)c(C)n(-c5ccc(F)cc5)c4=O)cc3F)c2nc1OC` [Compound 368, N-[4-[(6,7-dimethoxy-1,5-naphthyridin-4-yl)oxy]-3-fluorophenyl]-1-(4-fluorophenyl)-6-methyl-2-oxo-5-propan-2-ylpyridine-3-carboxamide]: the half-inhibitory concentration (IC50) is 100 to 300 nM in experiment [1], below 100 nM in experiment [2] and below 100 nM in experiment [3].

Take `CCOc1c(C(=O)Nc2ccc(Oc3ccnc4cc(OC)c(OC)nc34)c(F)c2)c(=O)c(-c2ccc(F)cc2)c(C)n1C` [Compound 369, N-[4-[(6,7-dimethoxy-1,5-naphthyridin-4-yl)oxy]-3-fluorophenyl]-2-ethoxy-5-(4-fluorophenyl)-1,6-dimethyl-4-oxopyridine-3-carboxamide]: the IC50 was 100 to 300 nM in experiment [1], above 300 nM in experiment [2] and below 100 nM in experiment [3].

For `COc1cc2nccc(Oc3ccc(NC(=O)c4cc(C)c(C)n(-c5ccc(F)cc5)c4=O)cc3F)c2nc1OC` [Compound 370, N-[4-[(6,7-dimethoxy-1,5-naphthyridin-4-yl)oxy]-3-fluorophenyl]-1-(4-fluorophenyl)-5,6-dimethyl-2-oxopyridine-3-carboxamide], the IC50 in experiment [1], in experiment [2] and in experiment [3] was below 100 nM in each case.

Take `Cc1ncc(C(=O)Nc2ccc(Oc3ccnc4cc(-c5cnn(C(F)F)c5)ccc34)cc2)c(O)c1-c1ccc(F)cc1` [Compound 377, N-[4-[7-[1-(difluoromethyl)pyrazol-4-yl]quinolin-4-yl]oxyphenyl]-5-(4-fluorophenyl)-4-hydroxy-6-methylpyridine-3-carboxamide]: the IC50 in experiment [1] was below 100 nM; in experiment [2], 100 to 300 nM; in experiment [3], below 100 nM.

For `COc1ccc2nccc(Oc3ccc(NC(=O)c4ncc(C)n(-c5ccc(F)cc5)c4=O)cc3)c2n1` [Compound 378, 4-(4-fluorophenyl)-N-[4-[(6-methoxy-1,5-naphthyridin-4-yl)oxy]phenyl]-5-methyl-3-oxopyrazine-2-carboxamide], the results for the IC50 in experiment [1], in experiment [2] and in experiment [3] were above 300 nM, below 100 nM and below 100 nM, respectively.

Regarding `COc1cc2nccc(Oc3ccc(NC(=O)c4nccn(-c5ccc(F)cc5)c4=O)cc3F)c2nc1OC` [Compound 379, N-[4-[(6,7-dimethoxy-1,5-naphthyridin-4-yl)oxy]-3-fluorophenyl]-4-(4-fluorophenyl)-3-oxopyrazine-2-carboxamide], the IC50 in experiment [1], in experiment [2] and in experiment [3] was below 100 nM each time.

Take `COc1ccc2nccc(Oc3ccc(NC(=O)c4nccn(-c5ccc(F)cc5)c4=O)cc3F)c2n1` [Compound 380, N-[3-fluoro-4-[(6-methoxy-1,5-naphthyridin-4-yl)oxy]phenyl]-4-(4-fluorophenyl)-3-oxopyrazine-2-carboxamide]: the IC50 in experiment [1] is above 300 nM; in experiment [2], below 100 nM; in experiment [3], below 100 nM.

`COc1cnc2c(Oc3ccc(NC(=O)c4nccn(-c5ccc(F)cc5)c4=O)cc3F)ccnc2c1` [Compound 381, N-[3-fluoro-4-[(7-methoxy-1,5-naphthyridin-4-yl)oxy]phenyl]-4-(4-fluorophenyl)-3-oxopyrazine-2-carboxamide]: the IC50 in experiment [1] was above 300 nM; in experiment [2], below 100 nM; in experiment [3], below 100 nM.

Take `COc1cnc2c(Oc3ccc(NC(=O)c4nccn(-c5ccc(F)cc5)c4=O)cc3)ccnc2c1` [Compound 382, 4-(4-fluorophenyl)-N-[4-[(7-methoxy-1,5-naphthyridin-4-yl)oxy]phenyl]-3-oxopyrazine-2-carboxamide]: the IC50 in experiment [1] is above 300 nM; in experiment [2] it was below 100 nM; in experiment [3], below 100 nM.

`COc1ccc2nccc(Oc3ccc(NC(=O)c4nccn(-c5ccc(F)cc5)c4=O)cc3)c2n1` [Compound 383, 4-(4-fluorophenyl)-N-[4-[(6-methoxy-1,5-naphthyridin-4-yl)oxy]phenyl]-3-oxopyrazine-2-carboxamide]: the IC50 in experiment [1] was above 300 nM; in experiment [2], below 100 nM; in experiment [3], below 100 nM.

With `COc1cc2nccc(Oc3ccc(NC(=O)c4nccn(-c5ccc(F)cc5)c4=O)cc3)c2nc1OC` [Compound 384, N-[4-[(6,7-dimethoxy-1,5-naphthyridin-4-yl)oxy]phenyl]-4-(4-fluorophenyl)-3-oxopyrazine-2-carboxamide], the IC50 was 100 to 300 nM in experiment [1], below 100 nM in experiment [2] and below 100 nM in experiment [3].

As to `COc1cc2nccc(Oc3ccc(NC(=O)c4ccnn(-c5ccc(F)cc5)c4=O)cc3F)c2nc1OC` [Compound 386, N-[4-[(6,7-dimethoxy-1,5-naphthyridin-4-yl)oxy]-3-fluorophenyl]-2-(4-fluorophenyl)-3-oxopyridazine-4-carboxamide], the IC50 in experiment [1], in experiment [2] and in experiment [3] was below 100 nM in each case.

For `COc1cc2nccc(Oc3ccc(NC(=O)c4cn(C)c(C)c(-c5ccc(F)cc5)c4=O)cc3Cl)c2nc1OC` [Compound 388, N-[3-chloro-4-[(6,7-dimethoxy-1,5-naphthyridin-4-yl)oxy]phenyl]-5-(4-fluorophenyl)-1,6-dimethyl-4-oxopyridine-3-carboxamide], the IC50 in experiment [1], in experiment [2] and in experiment [3] was below 100 nM in each case.

As for `COc1cc2nccc(Oc3ccc(NC(=O)c4cn(C)c(C)c(-c5ccc(F)cc5)c4=O)c(F)c3)c2nc1OC` [Compound 389, N-[4-[(6,7-dimethoxy-1,5-naphthyridin-4-yl)oxy]-2-fluorophenyl]-5-(4-fluorophenyl)-1,6-dimethyl-4-oxopyridine-3-carboxamide], the IC50 in experiment [1] was above 300 nM; in experiment [2], above 300 nM; in experiment [3], below 100 nM.

With `COc1cc2nccc(Oc3ccc(NC(=O)c4cn(C)c(C)c(-c5ccc(F)cc5)c4=O)c(F)c3F)c2nc1OC` [Compound 390, N-[4-[(6,7-dimethoxy-1,5-naphthyridin-4-yl)oxy]-2,3-difluorophenyl]-5-(4-fluorophenyl)-1,6-dimethyl-4-oxopyridine-3-carboxamide], the IC50 in experiment [1] is above 300 nM; in experiment [2] it was below 100 nM; in experiment [3], below 100 nM.

Consider `COc1cc2nccc(Oc3cc(F)c(NC(=O)c4cn(C)c(C)c(-c5ccc(F)cc5)c4=O)cc3F)c2nc1OC` [Compound 391, N-[4-[(6,7-dimethoxy-1,5-naphthyridin-4-yl)oxy]-2,5-difluorophenyl]-5-(4-fluorophenyl)-1,6-dimethyl-4-oxopyridine-3-carboxamide], for which the concentration for half-maximal inhibition (IC50) is 100 to 300 nM in experiment [1], below 100 nM in experiment [2] and below 100 nM in experiment [3].

`COc1cc2nccc(Oc3c(F)cc(NC(=O)c4cn(C)c(C)c(-c5ccc(F)cc5)c4=O)cc3F)c2nc1OC` [Compound 392, N-[4-[(6,7-dimethoxy-1,5-naphthyridin-4-yl)oxy]-3,5-difluorophenyl]-5-(4-fluorophenyl)-1,6-dimethyl-4-oxopyridine-3-carboxamide]: the results for the IC50 in experiment [1], in experiment [2] and in experiment [3] were above 300 nM, below 100 nM and below 100 nM, respectively.

Consider `COc1cc2nccc(Oc3ccc(NC(=O)c4ncc(C)n(-c5ccc(F)cc5C)c4=O)cc3F)c2nc1OC` [Compound 393, N-[4-[(6,7-dimethoxy-1,5-naphthyridin-4-yl)oxy]-3-fluorophenyl]-4-(4-fluoro-2-methylphenyl)-5-methyl-3-oxopyrazine-2-carboxamide], for which the IC50 in experiment [1], in experiment [2] and in experiment [3] was below 100 nM each time.

As for `COc1ccc2nccc(Oc3ccc(NC(=O)c4ncc(C)n(-c5ccc(F)cc5C)c4=O)cc3F)c2n1` [Compound 394, N-[3-fluoro-4-[(6-methoxy-1,5-naphthyridin-4-yl)oxy]phenyl]-4-(4-fluoro-2-methylphenyl)-5-methyl-3-oxopyrazine-2-carboxamide], the figures for the IC50 in experiment [1], in experiment [2] and in experiment [3] were above 300 nM, below 100 nM and below 100 nM, respectively.

Regarding `COc1cc2nccc(Oc3ncc(NC(=O)c4cn(C5CN(C)C5)cc(-c5ccc(F)cc5)c4=O)cc3F)c2cc1OC` [Compound 400, N-[6-(6,7-dimethoxyquinolin-4-yl)oxy-5-fluoropyridin-3-yl]-5-(4-fluorophenyl)-1-(1-methylazetidin-3-yl)-4-oxopyridine-3-carboxamide], the concentration for half-maximal inhibition (IC50) was above 300 nM in experiment [1], below 100 nM in experiment [2] and below 100 nM in experiment [3].

The values are drawn from patent publication US12371428B2 (Exelixis, Inc., priority 2019, dated 2025).
